Source: PubChem BioAssay AID248 (DTP/NCI, 2004)
Values joined by “and” are separate entries in the source; they are usually repeats but may differ in a detail not shown here. Equal values may be shown once. Inconclusive results and toxic doses are left out. Cut-off read from the data, not from the text of the source: active = T/C of 150% or more; inactive = T/C below 125%. Square brackets hold non-standard residues; d marks the D form. Peptide text beside a SMILES is read from it. ξ: configuration not given here. ξD = NC(CC(=O)O)C(=O)O

System: L1210 leukemia ip in BDF1 mice, survival T/C
Assay: NCI In Vivo Anticancer Drug Screen. Data for tumor model L1210 Leukemia (intraperitoneal) in B6D2F1 (BDF1) mice
Conditions: endpoint: mean survival time, higher = longer survival
How it was run: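 Tumor was transplanted into mice, which were then dosed with test compound or vehicle alone. Survival was recorded for each group, and the treated figure was expressed relative to the control figure.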

[1] = dose: 100.0 mg/kg/injection, schedule: Q01DX001 (ip), vehicle: Klucel (hydroxypropylcellulose) (HPC)
[2] = dose: 100.0 mg/kg/injection, schedule: Q01DX009 (ip), vehicle: Klucel (hydroxypropylcellulose) (HPC)
[3] = dose: 200.0 mg/kg/injection, schedule: Q01DX001 (ip), vehicle: Klucel (hydroxypropylcellulose) (HPC)
[4] = dose: 200.0 mg/kg/injection, schedule: Q01DX009 (ip), vehicle: Klucel (hydroxypropylcellulose) (HPC)
[5] = dose: 400.0 mg/kg/injection, schedule: Q01DX001 (ip), vehicle: Klucel (hydroxypropylcellulose) (HPC)
[6] = dose: 400.0 mg/kg/injection, schedule: Q01DX009 (ip), vehicle: Klucel (hydroxypropylcellulose) (HPC)
[7] = dose: 100.0 mg/kg/injection, schedule: Q04DX002 (ip), vehicle: Klucel (hydroxypropylcellulose) (HPC)
[8] = dose: 75.0 mg/kg/injection, schedule: Q01DX001 (ip), vehicle: saline
[9] = dose: 150.0 mg/kg/injection, schedule: Q01DX001 (ip), vehicle: saline
[10] = dose: 100.0 mg/kg/injection, schedule: Q04DX003 (ip), vehicle: saline
[11] = dose: 200.0 mg/kg/injection, schedule: Q04DX003 (ip), vehicle: saline
[12] = dose: 400.0 mg/kg/injection, schedule: Q04DX003 (ip), vehicle: saline

Measured: T/C

CON(C)c1nc(Cl)nc(Cl)n1
inactive: dose: 50.0 mg/kg/injection, schedule: Q01DX001 (ip), vehicle: saline 105 % of control | [1] 103 % of control | dose: 100.0 mg/kg/injection, schedule: Q01DX001 (ip), vehicle: saline 100 % of control | [2] 95 % of control | [3] 94 % of control | dose: 200.0 mg/kg/injection, schedule: Q01DX001 (ip), vehicle: saline 94 % of control | [4] 98 % of control | [5] 98 % of control | dose: 400.0 mg/kg/injection, schedule: Q01DX001 (ip), vehicle: saline 102 % of control | [6] 96 % of control

O=[N+]([O-])c1ccccc1N=Cc1ccccc1O.[Co]
inactive: dose: 100.0 mg/kg/injection, schedule: Q01DX001 (ip), vehicle: other 98 % of control | dose: 200.0 mg/kg/injection, schedule: Q01DX001 (ip), vehicle: other 104 % of control

O=c1c2ccccc2nc2sc3ccccc3n12
inactive: dose: 100.0 mg/kg/injection, schedule: Q01DX009 (ip), vehicle: other 93 % of control | dose: 200.0 mg/kg/injection, schedule: Q01DX009 (ip), vehicle: other 107 % of control | dose: 400.0 mg/kg/injection, schedule: Q01DX009 (ip), vehicle: other 103 % of control

Cc1cc(NC(=O)Nc2cccc3ccccc23)no1
inactive: [2] 104 % of control | [7] 89 % of control | [4] 98 % of control | dose: 200.0 mg/kg/injection, schedule: Q04DX002 (ip), vehicle: Klucel (hydroxypropylcellulose) (HPC) 102 % of control | [6] 98 % of control | dose: 400.0 mg/kg/injection, schedule: Q04DX002 (ip), vehicle: Klucel (hydroxypropylcellulose) (HPC) 89 % of control

O=C(O)CSC1(SCC(=O)O)CCCCC1
inactive: [1] 103 % of control | [3] 97 % of control | [5] 97 % of control

O=C(CCl)Nc1ncn[nH]1
inactive: dose: 75.0 mg/kg/injection, schedule: Q01DX001 (ip), vehicle: carboxymethylcellulose (CMC) 101 % of control | dose: 150.0 mg/kg/injection, schedule: Q01DX001 (ip), vehicle: carboxymethylcellulose (CMC) 97 % of control | dose: 300.0 mg/kg/injection, schedule: Q01DX001 (ip), vehicle: carboxymethylcellulose (CMC) 107 % of control

CC1=CC(C)(N=[N+]=[N-])CC(C)(C)C1 (stereo not drawn)
inactive: dose: 37.5 mg/kg/injection, schedule: Q04DX003 (ip), vehicle: saline 107 % of control | [8] 98 % of control | dose: 75.0 mg/kg/injection, schedule: Q04DX003 (ip), vehicle: saline 100 % of control | [9] 92 % of control | dose: 150.0 mg/kg/injection, schedule: Q04DX003 (ip), vehicle: saline 103 % of control

CC(C)(C)C(=O)CC(=O)C(C)(C)C.CC(C)(C)C(=O)CC(=O)C(C)(C)C.[Ni]
inactive: dose: 10.0 mg/kg/injection, schedule: Q04DX003 (ip), vehicle: saline 100 % of control | dose: 20.0 mg/kg/injection, schedule: Q04DX003 (ip), vehicle: saline 94 % of control | dose: 40.0 mg/kg/injection, schedule: Q04DX003 (ip), vehicle: saline 117 % of control

NC(CCl)=NCc1ccccn1
inactive: dose: 100.0 mg/kg/injection, schedule: Q04DX002 (ip), vehicle: saline 96 % of control

NC(=O)/C=C/NC(=O)/C=N\O
inactive: dose: 12.5 mg/kg/injection, schedule: Q01DX Z (ip), vehicle: saline 97 % of control and 89 % of control | dose: 25.0 mg/kg/injection, schedule: Q01DX Z (ip), vehicle: saline 92 % of control and 93 % of control | dose: 50.0 mg/kg/injection, schedule: Q01DX Z (ip), vehicle: saline 96 % of control and 97 % of control | dose: 100.0 mg/kg/injection, schedule: Q01DX001 (ip), vehicle: carboxymethylcellulose (CMC) 102 % of control | dose: 100.0 mg/kg/injection, schedule: Q01DX Z (ip), vehicle: saline 96 % of control and 100 % of control | dose: 200.0 mg/kg/injection, schedule: Q01DX001 (ip), vehicle: carboxymethylcellulose (CMC) 96 % of control | dose: 200.0 mg/kg/injection, schedule: Q01DX Z (ip), vehicle: saline 97 % of control and 89 % of control | dose: 400.0 mg/kg/injection, schedule: Q01DX001 (ip), vehicle: carboxymethylcellulose (CMC) 91 % of control

CC(C(=O)O)N(C)C(=O)OCc1ccccc1 (stereo not drawn)
inactive: dose: 100.0 mg/kg/injection, schedule: Q01DX001 (ip), vehicle: acetone 103 % of control | [10] 105 % of control | dose: 200.0 mg/kg/injection, schedule: Q01DX001 (ip), vehicle: acetone 101 % of control | [11] 90 % of control | dose: 400.0 mg/kg/injection, schedule: Q01DX001 (ip), vehicle: acetone 96 % of control | [12] 92 % of control

CNC(=O)Nc1c(O)nc(N)[nH]c1=O
inactive: dose: 37.5 mg/kg/injection, schedule: Q01DX001 (ip), vehicle: saline 97 % of control | [8] 103 % of control | [9] 105 % of control

CCOC(=O)C(C#N)C(C(C)=O)C(=O)OCC (stereo not drawn)
inactive: dose: 25.0 mg/kg/injection, schedule: Q01DX009 (ip), vehicle: saline sonified 120 % of control | dose: 50.0 mg/kg/injection, schedule: Q01DX009 (ip), vehicle: saline sonified 124 % of control | dose: 75.0 mg/kg/injection, schedule: Q01DX001 (ip), vehicle: other 94 % of control | dose: 100.0 mg/kg/injection, schedule: Q01DX009 (ip), vehicle: saline sonified 104 % of control | dose: 100.0 mg/kg/injection, schedule: Q04DX003 (ip), vehicle: saline sonified 110 % of control | dose: 150.0 mg/kg/injection, schedule: Q01DX001 (ip), vehicle: other 102 % of control | dose: 300.0 mg/kg/injection, schedule: Q01DX001 (ip), vehicle: other 100 % of control

COC(CBr)c1ccccc1 (stereo not drawn)
inactive: dose: 12.5 mg/kg/injection, schedule: Q04DX003 (ip), vehicle: Klucel (hydroxypropylcellulose) (HPC) 98 % of control | dose: 25.0 mg/kg/injection, schedule: Q01DX009 (ip), vehicle: saline 108 % of control | dose: 25.0 mg/kg/injection, schedule: Q04DX003 (ip), vehicle: Klucel (hydroxypropylcellulose) (HPC) 101 % of control | dose: 50.0 mg/kg/injection, schedule: Q01DX009 (ip), vehicle: saline 98 % of control | dose: 50.0 mg/kg/injection, schedule: Q04DX003 (ip), vehicle: Klucel (hydroxypropylcellulose) (HPC) 96 % of control | dose: 100.0 mg/kg/injection, schedule: Q01DX009 (ip), vehicle: saline 95 % of control

O=C1NC(=O)N(c2ccccc2)C(=O)/C1=C/c1ccccc1
inactive: [1] 90 % of control | [3] 97 % of control

NC(CC(=O)O)C(=O)NCC(=O)O (stereo not drawn) (H-[ξD]-Gly-OH)
inactive: dose: 12.5 mg/kg/injection, schedule: Q04DX002 (ip), vehicle: Klucel (hydroxypropylcellulose) (HPC) 98 % of control | dose: 25.0 mg/kg/injection, schedule: Q04DX002 (ip), vehicle: Klucel (hydroxypropylcellulose) (HPC) 94 % of control | dose: 50.0 mg/kg/injection, schedule: Q04DX002 (ip), vehicle: Klucel (hydroxypropylcellulose) (HPC) 94 % of control | [7] 117 % of control

COc1ccc(CCN=C(C)C2C3CC4CC(C3)CC2C4)cc1OC (stereo not drawn)
inactive: [10] 90 % of control | [11] 97 % of control | [12] 90 % of control

Cc1nc2ccccc2c(=O)n1NC(=O)c1cc([N+](=O)[O-])cc([N+](=O)[O-])c1
inactive: dose: 100.0 mg/kg/injection, schedule: Q01DX009 (ip), vehicle: saline with Tween-80 90 % of control | dose: 200.0 mg/kg/injection, schedule: Q01DX009 (ip), vehicle: saline with Tween-80 97 % of control | dose: 400.0 mg/kg/injection, schedule: Q01DX009 (ip), vehicle: saline with Tween-80 93 % of control
